In the NIST ThermoML archive (doi:10.1016/j.jct.2006.05.001):
Numbers after ± are expanded uncertainties.

Experiments:
[1] = refractive index (Na D-line) (dimensionless); conditions: 293.15 K; 101.33 kPa; Liquid; Standard Abbe refractometry
[2] = Liquid; for mass density: 101.33 kPa; for Normal boiling temperature: Distillation

| Structure (SMILES) | refractive index [1] | mass density ([2]; 293.15 K) [kg/m3] | Normal boiling temperature [2] [°C] | mass density ([2]; 298.15 K) [kg/m3] | mass density ([2]; 297.15 K) [kg/m3] |
| --- | --- | --- | --- | --- | --- |
| CCCCCCCCCCCCO [dodecan-1-ol] | – | – | 259.4 ± 0.5 | – | 830.8 ± 1.5 |
| CCC(=O)O [propanoic acid] | 1.3808 ± 0.0008 | – | 141.4 ± 0.5 | 988.04 ± 0.53 | – |

The remaining lines, values ahead:

| refractive index [1] | mass density ([2]; 293.15 K) [kg/m3] | Normal boiling temperature [2] [°C] | mass density ([2]; 298.15 K) [kg/m3] | mass density ([2]; 297.15 K) [kg/m3] | Structure (SMILES) |
| --- | --- | --- | --- | --- | --- |
| 1.4373 ± 0.0008 | 829.5 ± 0.94 | 230.6 ± 0.5 | – | – | CCCCCCCCCCO [decan-1-ol] |
| 1.4292 ± 0.0008 | – | 195 ± 0.5 | 826.25 ± 0.95 | – | CCCCCCCCO [octan-1-ol] |
| 1.4335 ± 0.0008 | 828.5 ± 1.7 | 215.2 ± 0.5 | – | – | CCCCCCCCCO [nonan-1-ol] |
